Entries after “also recorded” stand apart in the source; their conditions may differ.
Tests used:
p-NFκB = assay: Western immunoblotting, p-NFκB in RAW264.7 cells; format: cell-based, mouse; details: 20 μM salubrinal
Protocol: (§1) METHOD EXAMPLE. Western Immunoblotting. Cells were lysed in a radioimmunoprecipitation assay (RIPA) buffer containing protease inhibitors (Santa Cruz Biotechnology, Santa Cruz, Calif., USA) and phosphatase inhibitors (Calbiochem, Billerica, Mass., USA). Isolated proteins were fractionated using 10-15% SDS gels and electro-transferred to Immobilon-P membranes (Millipore, Billerica, Mass., USA). The membrane was incubated for 1 h with primary antibodies followed by 45 min incubation with goat anti-rabbit or anti-mouse IgG conjugated with horseradish peroxidase (Cell Signaling, Danvers, Mass., USA). We used antibodies against ATF4, NFATcl (Santa Cruz), p-eIF2α (Thermo Scientific, Waltham, Mass., USA), eIF2α, caspase 3, cleaved caspase 3, p38 and p-p38 mitogen activated protein kinase (MAPK), extracellular signal-regulated kinase (ERK) and p-ERK, nuclear factor kappa B (NFκB) p65 and p-NFκB p65 (Cell Signaling), and β-actin (Sigma). Protein levels were assayed using a SuperSignal west femto maximum sensitivity substrate (Thermo Scientific), and signal intensities were quantified with a luminescent image analyzer (LAS-3000, Fuji Film, Tokyo, Japan).
(§2) METHOD EXAMPLE. Temporal profile of p-eIF2α and NFATcl. […] Note that the normalized level of “1” in FIG. 6C was defined as the level for the cells that were not treated with RANKL without administration of guanabenz.

[1] = test system: MC3T3 E1 mouse osteoblast-like cells (clone 14); assay: Cell mortality and proliferation of MC3T3 E1-14 cells; format: cell-based; details: 5-20 μM salubrinal
Protocol: METHOD EXAMPLE. Cell culture. MC3T3 E1 mouse osteoblast-like cells (clone 14—MC3T3 E1-14; and no clonal cells in supplementary figures), and RAW264.7 mouse pre-osteoclast (monocyte/macrophage) cells were cultured in αMEM containing 10% fetal bovine serum and antibiotics (50 units/ml penicillin, and 50 μg/ml streptomycin; Life Technologies, Grand Island, N.Y., USA). Cells were maintained at 37° C. and 5% CO2 in a humidified incubator. Cell mortality and live cell numbers were determined 24 h after the treatment with 20 ng/ml RANKL (PeproTech, Rocky Hills, N.C., USA) in response to 0.1-20 μM salubrinal or 1-20 μM guanabenz acetate (Tocris Bioscience, Ellisville, Mo., USA). Cells were stained with trypan blue and the numbers of live and dead cells were counted using a hemacytometer.
(§3) METHOD EXAMPLE. Enhanced mineralization of MC3T3 E1-14 cells by salubrinal. Prior to examining the effects of salubrinal on osteoclastogenesis, its effects on development of osteoblasts was tested, focusing on cell viability, phosphorylation of eIF2α (p-eIF2α), expression of ATF4 and osteocalcin, and matrix mineralization. […] The enhanced mineralization was also observed in non-clonal MC3T3 E1 cells (Supplementary FIG. S1).

p-eIF2α = assay: Western immunoblotting, p-eIF2α in MC3T3 E1-14 cells; format: cell-based, mouse
Protocol: as §1
METHOD EXAMPLE. ATF4-mediated elevation of osteocalcin mRNA in MC3T3 E1-14 cells. Salubrinal is an inhibitor of de-phosphorylation of eIF2α. […]

p-p38 MAPK = assay: Western immunoblotting, p-p38 MAPK in RAW264.7 cells; format: cell-based, mouse; details: 20 μM salubrinal
Protocol: as §1, §2

p-ERK = assay: Western immunoblotting, p-ERK in RAW264.7 cells; format: cell-based, mouse; details: 20 μM salubrinal
Protocol: as §1, §2

RAW264.7 cells = assay: Osteoclastogenesis in vitro and TRAP staining; format: cell-based, mouse; details: for growth area covered by multi-nucleated cells: dose dependent; for number of TRAP-positive multi-nucleated cells: with 20 ng/ml RANKL, 5 days of culture
Protocol: METHOD EXAMPLE. Inhibition of osteoclastogenesis of RAW264.7 cells by salubrinal. The primary aim of this study is to evaluate the effects of salubrinal on osteoclastogenesis. In response to 0.1-20 μM salubrinal for 24 h, cell mortality and live cell numbers of RAW264.7 pre-osteoclasts was examined. […] The number of live cells was increased by ˜50% by incubation with RANKL, and administration of 10-20 μM salubrinal reduced the numbers approximately by 10% (FIG. 3B).
METHOD EXAMPLE. Inhibitory effects of guanabenz on osteoclastogenesis of RAW264.7 cells. To further examine a potential involvement of p-eIF2α in regulation of osteoclastogenesis, we employed guanabenz that also acts as an inhibitor of de-phosphorylation of eIF2α was evaluated. […] Compared to the number of TRAP-positive multi-nucleated cells of 377 39 (RANKL only), guanabenz reduced the number of differentiated osteoclasts to 364±38 (1 μM), 288±51 (5 μM), 189±25 (10 μM), and 73±16 (20 μM).
METHOD EXAMPLE. Osteoclastogenesis in vitro and TRAP (Tartrate-resistant acid phosphatase) staining. RAW264.7 cells were plated at a density of 5×10^3/cm^2 into a 12-well or a 60 mm dish, and cultured with 20 ng/ml RANKL in the presence and absence of salubrinal or guanabenz. The culture medium was replaced every 2 days. After 5 days of culture, the cells were stained for TRAP staining using an acid phosphatase leukocyte kit (Sigma). The number of TRAP-positive cells containing three or more nuclei was determined

cleaved caspase 3 = assay: Western immunoblotting, cleaved caspase 3 in MC3T3 E1-14 cells; format: cell-based, mouse; details: 10 μM salubrinal, 24 h
Protocol: as §1
METHOD EXAMPLE. Enhanced mineralization of MC3T3 E1-14 cells by salubrinal. […]

MC3T3 E1-14 cells = assay: Mineralization assay (Alizarin Red S staining); format: cell-based, mouse; details: 3-week incubation in an osteogenic medium
Protocol: METHOD EXAMPLE. Mineralization assay. Mineralization of extracellular matrix was assayed by Alizarin Red S staining. MC3T3-E1 cells were plated in 6-well plates. When cells were confluent, 50 μg/ml of ascorbic acid (Wako Chemicals, Richmond, Va., USA) and 5 mM β-glycerophosphate (Sigma) were added. The medium was changed every other day, and staining was conducted after 3 week. Cells were washed with PBS twice and fixed with 60% isopropanol for 1 min at room temperature, followed by rehydration with distilled water for 3 min at room temperature. They were stained with 1% Alizarin red S (Sigma) for 3 min and washed with distilled water.
as §3

SMILES: O=C(/C=C/c1ccccc1)NC(NC(=S)Nc1cccc2cccnc12)C(Cl)(Cl)Cl (centres unmarked) [salubrinal]
- phosphorylation level of NFκB (p-NFκB): did not significantly alter; also recorded: no detectable changes
- cell mortality [1]: did not increase cell mortality or inhibit cell proliferation
- cell proliferation [1]: did not increase cell mortality or inhibit cell proliferation
- phosphorylation of eIF2α (p-eIF2α; 5 μM salubrinal): elevated phosphorylation of eIF2α
- phosphorylation level of p38 MAPK (p-p38 MAPK): did not significantly alter; also recorded: no detectable changes
- phosphorylation level of ERK (p-ERK): did not significantly alter; also recorded: no detectable changes
- number of TRAP-positive cells (RAW264.7 cells; 0.5 μM to 20 μM salubrinal, with RANKL): reduced the number of TRAP-positive cells in a dose dependent manner
- growth area covered by multi-nucleated cells (RAW264.7 cells): significantly reduced
- expression level of cleaved caspase 3 (cleaved caspase 3): did not elevate
- mineralization (Alizarin red S staining area) (MC3T3 E1-14 cells): enhanced mineralization of MC3T3 E1-14 cells in a dose dependent manner

SMILES: N=C(N)N/N=C/c1c(Cl)cccc1Cl [guanabenz]
- p-eIF2α (p-eIF2α; guanabenz): increase in p-eIF2α and ATF4
- number of TRAP-positive multi-nucleated cells (RAW264.7 cells; 1 μM): 364±38
- number of TRAP-positive multi-nucleated cells (RAW264.7 cells; 5 μM): 288±51
- number of TRAP-positive multi-nucleated cells (RAW264.7 cells; 10 μM): 189±25
- number of TRAP-positive multi-nucleated cells (RAW264.7 cells; 20 μM): 73±16
- growth area covered by multi-nucleated cells (RAW264.7 cells): significantly reduced
- osteoclastogenesis of RAW264.7 cells (RAW264.7 cells; guanabenz dose response, with RANKL): attenuated osteoclastogenesis of RAW264.7 cells in a dose dependent manner

Reference: patent US20160279079A1, “COMPOSITIONS AND METHODS FOR TREATING BONE DISEASES” (INDIANA UNIVERSITY RESEARCH AND TECHNOLOGY CORPORATION, priority 2013, published 2016)
